Measurements: US20220125053A1, “Pesticidal Mixtures” (BASF SE, priority 2019, published 2022)

Assays:
[1] = test system: Qoi resistant isolate of Septoria tritici; experiment: Microtest: activity against leaf blotch on wheat caused by Septoria tritici (SEPTTR), Qoi resistant isolate; type: cell-based; conditions: single compound, 7 days after inoculation
Excerpt: (§1) The active compounds were formulated separately as a stock solution having a concentration of 10000 ppm in dimethyl sulfoxide.
(§2) 2. Activity against leaf blotch on wheat caused by Septoria tritici (SEPTTR) The stock solutions were mixed according to the ratio, pipetted onto a micro titer plate (MTP) and diluted with water to the stated concentrations. A spore suspension of a Qoi resistant isolate of Septoria tritici in an aqueous biomalt or yeast-bactopeptone-glycerine or DOB solution was then added. The plates were placed in a water vapor-saturated chamber at a temperature of 18° C. Using an absorption photometer, the MTPs were measured at 405 nm 7 days after the inoculation.
(§3) The measured parameters were compared to the growth of the active compound-free control variant (100%) and the fungus-free blank value to determine the relative growth in % of the pathogens in the respective active compounds.
(§4) These percentages were converted into efficacies.
(§5) An efficacy of 0 means that the growth level of the pathogens corresponds to that of the untreated control; an efficacy of 100 means that the pathogens were not growing.
(§6) The expected efficacies of active compound mixtures were determined using Colby's formula [R. S. Colby, “Calculating synergistic and antagonistic responses of herbicide combinations”, Weeds 15, 20-22 (1967)] and compared with the observed efficacies.

Microdochium nivale = experiment: Microtest: activity against Microdochium nivale (MONGNI); type: cell-based; conditions: single compound, 7 days after inoculation
Description: as §1
as §2, with “1.” for “2.”, “Microdochium nivale (MONGNI)” for “leaf blotch on wheat caused by Septoria tritici (SEPTTR)”, “Microdochium nivale” for “a Qoi resistant isolate of Septoria tritici”
as §3, §4, §5, §6

SMILES | Observed efficacy ([1]; 0.004 ppm) | Observed efficacy ([1]; 0.016 ppm) | Observed efficacy ([1]; 0.063 ppm) | Observed efficacy (Microdochium nivale; 0.063 ppm) | Observed efficacy (Microdochium nivale; 0.016 ppm)
CC(C)c1ccc(Cl)cc1CN(C(=O)c1c(C(F)F)nn(C)c1F)C1CC1 [Isoflucypram, N-(5-chloro-2-isopropylbenzyl)-N-cyclopropyl-3-(difluoromethyl)-5-fluoro-1-methyl-1H-pyrazole-4-carboxamide] | 0 | 5 | 34 | 40 | 
Cc1cccc(-n2nnn(C)c2=O)c1COc1ccn(-c2ccc(Cl)cc2)n1 [Metyltetraprol, 1-[2-[[1-(4-chlorophenyl)pyrazol-3-yl]oxymethyl]-3-methyl-phenyl]-4-methyl-tetrazol-5-one] |  | 0 | 1 |  | 32
